Assay results published in patent US20230107642A1 (Erasca, Inc., priority 2020, published 2023).

target: T1, Cys12 of the KRAS 4B G12C protein (Homo sapiens, UniProt P01116, G12C); assay: In vitro covalent adduct formation (CAF) assay, LC-MS intact mass; assay type: binding; conditions: 10 uM compound, 60 min
T1 construct: This protein contained 188 amino acids in total, including an N-terminal 6-Histidine tag; made in house; host or cells: E. coli BL21
Method in brief: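 GDP-loaded (>95%) His-TEV-tagged KRAS 4B G12C (residues 1–169), 5 μM in TBS pH 7.4, incubated with 10 μM compound (4% DMSO) at 22° C for one hour. Intact-protein LC-MS gave free:adduct ratios, reported as percent protein modified; duplicate runs.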

Structure (SMILES)	% CAF 10 uM @ 60 min
C=CC(=O)N1[C@H](C)CN(c2nc(=O)n3c4c(c(-c5ccc(F)cc5)c(C(F)(F)F)cc24)SC[C@H](COC)C3)C[C@@H]1C [Example 1408, (S)-8-((3S,5R)-4-acryloyl-3,5-dimethylpiperazin-1-yl)-11-(4-fluorophenyl)-3-(methoxymethyl)-10-(trifluoromethyl)-3,4-dihydro-2H,6H-[1,4]thiazepino[2,3,4-ij]quinazolin-6-one]	83.7%
C=CC(=O)N1[C@H](C)CN(c2nc(=O)n3c4c(c(-c5ccc(F)cc5)c(C(F)(F)F)cc24)SCC(COC)(COC)C3)C[C@@H]1C [Example 1409, 8-((3S,5R)-4-acryloyl-3,5-dimethylpiperazin-1-yl)-11-(4-fluorophenyl)-3,3-bis(methoxymethyl)-10-(trifluoromethyl)-3,4-dihydro-[1,4]thiazepino[2,3,4-ij]quinazolin-6(2H)-one]	96.5%
C=CC(=O)N1[C@H](C)CN(c2nc(=O)n3c4c(c(-c5cc(Cl)c(F)cc5F)c(C(F)(F)F)cc24)SCC(COC)(COC)C3)C[C@@H]1C [Example 1410, 8-((3S,5R)-4-acryloyl-3,5-dimethylpiperazin-1-yl)-11-(5-chloro-2,4-difluorophenyl)-3,3-bis(methoxymethyl)-10-(trifluoromethyl)-3,4-dihydro-2H,6H-[1,4]thiazepino[2,3,4-ij]quinazolin-6-one]	95.3%
[2H]C([2H])([2H])OC[C@H]1CSc2c(-c3ccc(F)cc3)c(C(F)(F)F)cc3c(N4C[C@@H](C)N(C(=O)C=C)[C@@H](C)C4)nc(=O)n1c23 [Example 1413, (S)-7-((3S,5R)-4-acryloyl-3,5-dimethylpiperazin-1-yl)-10-(4-fluorophenyl)-3-((methoxy-d3)methyl)-9-(trifluoromethyl)-2,3-dihydro-5H-[1,4]thiazino[2,3,4-ij]quinazolin-5-one]	95.1%
C=CC(=O)N1[C@H](C)CN(c2nc(=O)n3c4c(c(-c5ccc(F)cc5F)c(C(F)(F)F)cc24)SC[C@@H]3COCC)C[C@@H]1C [Example 1414, (3S)-7-((3S,5R)-4-acryloyl-3,5-dimethylpiperazin-1-yl)-10-(2,4-difluorophenyl)-3-(ethoxymethyl)-9-(trifluoromethyl)-2,3-dihydro-5H-[1,4]thiazino[2,3,4-ij]quinazolin-5-one]	91.8%
C=CC(=O)N1[C@H](C)CN(c2nc(=O)n3c4c(c(-c5ccc(F)cc5)c(C(F)(F)F)cc24)SC[C@@H]3COCC)C[C@@H]1C [Example 1415, (S)-7-((3S,5R)-4-acryloyl-3,5-dimethylpiperazin-1-yl)-3-(ethoxymethyl)-10-(4-fluorophenyl)-9-(trifluoromethyl)-2,3-dihydro-5H-[1,4]thiazino[2,3,4-ij]quinazolin-5-one]	90.1%
[2H]C([2H])([2H])OC[C@H]1CSc2c(-c3cc(Cl)c(F)cc3F)c(C(F)(F)F)cc3c(N4C[C@@H](C)N(C(=O)C=C)[C@@H](C)C4)nc(=O)n1c23 [Example 1417, (3S)-7-((3S,5R)-4-acryloyl-3,5-dimethylpiperazin-1-yl)-10-(5-chloro-2,4-difluorophenyl)-3-((methoxy-d3)methyl)-9-(trifluoromethyl)-2,3-dihydro-5H-[1,4]thiazino[2,3,4-ij]quinazolin-5-one]	92.5%
[2H]C([2H])([2H])OC[C@H]1CSc2c(-c3ccc(F)cc3F)c(C(F)(F)F)cc3c(N4C[C@@H](C)N(C(=O)C=C)[C@@H](C)C4)nc(=O)n1c23 [Example 1418, (3S)-7-((3S,5R)-4-acryloyl-3,5-dimethylpiperazin-1-yl)-10-(2,4-difluorophenyl)-3-((methoxy-d3)methyl)-9-(trifluoromethyl)-2,3-dihydro-5H-[1,4]thiazino[2,3,4-ij]quinazolin-5-one]	95.4%
C=CC(=O)N1[C@H](C)CN(c2nc(=O)n3c4c(c(-c5ccc(F)cc5)c(C(F)(F)F)cc24)SC[C@@H]3C)C[C@@H]1C [Example 1419, (S)-7-((3S,5R)-4-acryloyl-3,5-dimethylpiperazin-1-yl)-10-(4-fluorophenyl)-3-methyl-9-(trifluoromethyl)-2H-[1,4]thiazino[2,3,4-ij]quinazolin-5(3H)-one]	95.7%
C=CC(=O)N1[C@H](C)CN(c2nc(=O)n3c4c(c(-c5cc(Cl)c(F)cc5F)c(C(F)(F)F)cc24)SC[C@@H](N2CCCC2)C3)C[C@@H]1C [Example 1422, (3S)-8-((3S,5R)-4-acryloyl-3,5-dimethylpiperazin-1-yl)-11-(5-chloro-2,4-difluorophenyl)-3-(pyrrolidin-1-yl)-10-(trifluoromethyl)-3,4-dihydro-2H,6H-[1,4]thiazepino[2,3,4-ij]quinazolin-6-one]	94.1%
C=CC(=O)N1C[C@H](C)N(c2nc(=O)n3c4c(c(-c5cc(C=O)c(F)cc5F)c(C(F)(F)F)cc24)SCC2(COC2)C3)C[C@H]1C [Example 1425, 5-(8′-((2S,5R)-4-acryloyl-2,5-dimethylpiperazin-1-yl)-6′-oxo-10′-(trifluoromethyl)-2′H,4′H,6′H-spiro[oxetane-3,3′-[1,4]thiazepino[2,3,4-ij]quinazolin]-11′-yl)-2,4-difluorobenzaldehyde]	69.2%
C=CC(=O)N1C[C@H](C)N(c2nc(=O)n3c4c(c(-c5cc(C(OC)OC)c(F)cc5F)c(C(F)(F)F)cc24)SCC2(COC2)C3)C[C@H]1C [Example 1426, 8′-((2S,5R)-4-acryloyl-2,5-dimethylpiperazin-1-yl)-11′-(5-(dimethoxymethyl)-2,4-difluorophenyl)-10′-(trifluoromethyl)-2′H,4′H,6′H-spiro[oxetane-3,3′-[1,4]thiazepino[2,3,4-ij]quinazolin]-6′-one]	76%
C=CC(=O)N1[C@H](C)CN(c2nc(=O)n3c4c(c(-c5ccc(F)cc5F)c(C(F)(F)F)cc24)SC[C@@H]3C)C[C@@H]1C [Example 1427, (3S)-7-((3S,5R)-4-acryloyl-3,5-dimethylpiperazin-1-yl)-10-(2,4-difluorophenyl)-3-methyl-9-(trifluoromethyl)-2,3-dihydro-5H-[1,4]thiazino[2,3,4-ij]quinazolin-5-one]	95%
C=CC(=O)N1[C@H](C)CN(c2nc(=O)n3c4c(c(-c5ccc(F)cc5)c(C(F)(F)F)cc24)SCC(CO)(CO)C3)C[C@@H]1C [Example 1430, 8-((3S,5R)-4-acryloyl-3,5-dimethylpiperazin-1-yl)-11-(4-fluorophenyl)-3,3-bis(hydroxymethyl)-10-(trifluoromethyl)-3,4-dihydro-2H,6H-[1,4]thiazepino[2,3,4-ij]quinazolin-6-one]	93%
C=CC(=O)N1C[C@H](C)N(c2nc(=O)n3c4c(c(-c5cc(Cl)c(F)cc5F)c(C(F)(F)F)cc24)SCC2(CCOCC2)C3)C[C@H]1C [Example 1435, 8′-((2S,5R)-4-acryloyl-2,5-dimethylpiperazin-1-yl)-11′-(5-chloro-2,4-difluorophenyl)-10′-(trifluoromethyl)-2,3,5,6-tetrahydro-2′H,4′H,6′H-spiro[pyran-4,3′-[1,4]thiazepino[2,3,4-ij]quinazolin]-6′-one]	84%
C=CC(=O)N1C[C@H](C)N(c2nc(=O)n3c4c(c(-c5cc(Br)c(F)cc5F)c(C(F)(F)F)cc24)SCC2(COC2)C3)C[C@H]1C [Example 1436, 8′-((2S,5R)-4-acryloyl-2,5-dimethylpiperazin-1-yl)-11′-(5-bromo-2,4-difluorophenyl)-10′-(trifluoromethyl)-2′H,4′H,6′H-spiro[oxetane-3,3′-[1,4]thiazepino[2,3,4-ij]quinazolin]-6′-one]	81%
C=CC(=O)N1[C@H](C)CN(c2nc(=O)n3c4c(c(-c5cc(Cl)c(F)cc5F)c(C(F)(F)F)cc24)SCC(CO)(CO)C3)C[C@@H]1C [Example 1437, 8-((3S,5R)-4-acryloyl-3,5-dimethylpiperazin-1-yl)-11-(5-chloro-2,4-difluorophenyl)-3,3-bis(hydroxymethyl)-10-(trifluoromethyl)-3,4-dihydro-2H,6H-[1,4]thiazepino[2,3,4-ij]quinazolin-6-one]	87%
C=CC(=O)N1[C@H](C)CN(c2nc(=O)n3c4c(c(-c5ccc(F)cc5F)c(C(F)(F)F)cc24)SCC(CO)(CO)C3)C[C@@H]1C [Example 1442, 8-((3S,5R)-4-acryloyl-3,5-dimethylpiperazin-1-yl)-11-(2,4-difluorophenyl)-3,3-bis(hydroxymethyl)-10-(trifluoromethyl)-3,4-dihydro-2H,6H-[1,4]thiazepino[2,3,4-ij]quinazolin-6-one]	93%
C=CC(=O)N1[C@H](C)CN(c2nc(=O)n3c4c(c(-c5cc(Br)c(F)cc5F)c(C(F)(F)F)cc24)SC[C@@H]3COC)C[C@@H]1C [Example 1443, (3S)-7-((3S,5R)-4-acryloyl-3,5-dimethylpiperazin-1-yl)-10-(5-bromo-2,4-difluorophenyl)-3-(methoxymethyl)-9-(trifluoromethyl)-2,3-dihydro-5H-[1,4]thiazino[2,3,4-ij]quinazolin-5-one]	85%
C=CC(=O)N1[C@H](C)CN(c2nc(=O)n3c4c(c(-c5cc(O)c(F)cc5F)c(C(F)(F)F)cc24)SC[C@@H]3COC)C[C@@H]1C [Example 1444, (3S)-7-((3S,5R)-4-acryloyl-3,5-dimethylpiperazin-1-yl)-10-(2,4-difluoro-5-hydroxyphenyl)-3-(methoxymethyl)-9-(trifluoromethyl)-2,3-dihydro-5H-[1,4]thiazino[2,3,4-ij]quinazolin-5-one]	90%
C=CC(=O)N1[C@H](C)CN(c2nc(=O)n3c4c(c(-c5nc(N)ccc5I)c(C(F)(F)F)cc24)SC[C@@H]3COC)C[C@@H]1C [Example 1449, (3S)-7-((3S,5R)-4-acryloyl-3,5-dimethylpiperazin-1-yl)-10-(6-amino-3-iodopyridin-2-yl)-3-(methoxymethyl)-9-(trifluoromethyl)-2,3-dihydro-5H-[1,4]thiazino[2,3,4-ij]quinazolin-5-one]	94%
